Experimental findings from US7045520B2, “Opioid receptor active compounds” (The Curators of the University of Missouri, priority 2002, dated 2006) are described below.

Data set [1] concerns the target T1, murine δ opioid receptor (Mus musculus, UniProt P32300).
T1 construct: expressed in transfected cells
In words: biochemical. The following applies: for Receptor Affinity (relative to 100%) δ: single concentration, 20 μM. Format: binding. How it is done:
(§1) Competitive Binding Assays. Human embryonic kidney (HEK) 293 cells (ATCC CRL, 1573) were cultured at 37° C. in Dulbecco's modified Eagle's medium supplemented with 10% fetal bovine serum, 100 units/ml penicillin and 100 μg/ml streptomycin sulfate. HEK293 cells were transfected by electroporation with expression plasmids encoding murine δ or μ opioid receptors tagged at the amino termini with the FLAG-tag epitope or the human κ receptor. Cells stably expressing opioid receptors were selected in media containing 0.75 mg/ml G418 (Life Technologies, Gaithersburg, Md.).
(§2) Cell membrane preparations were collected from the stable transfectants described above. Opioid receptor binding assays were conducted in duplicate on membrane preparations that had been resuspended in 50 mM Tris-HCL, pH 7.5, utilizing [9-^3H]bremazocine (specific activity 2.6 Ci/mmol, NEN, Boston, Mass.) as radioligand and 10 μM cyclazocine to define non-specific binding. Following a one-hour incubation on ice, binding assays were terminated by filtration through Whatman GF/B filters. Filters were soaked in Ecoscint liquid scintillation solution (National Diagnostics, Manville, N.J.) and filter-bound radioactivity was measured using a Packard Tri-Carb 2100 TR liquid scintillation analyzer. Receptor binding data were analyzed by non-linear regression of saturation and competition curves using Prism 3.0 software (GraphPad Software, San Diego, Calif.). Protein concentrations were determined with the Bio-Rad protein microassay (Hercules, Calif.) using bovine serum albumin as standard.
(§3) The binding affinities for compounds listed in Table 1 (4a-c and 5a-c) were determined by competition of [9-^3H]bremazocine binding to membranes prepared from stable cells expressing either the cloned μ, δ, or κ opioid receptors as described in the above sections.
(§4) To determine the selectivity profile of compound 5c toward the cloned opioid receptors, competitive binding assays were performed in the presence of increasing concentrations of compound 5c.
(§5) Preliminary Test for Agonist vs. Antagonist Activity. A simple method to determine whether a compound is acting as an agonist or antagonist at a G-Protein coupled receptor is to perform the competitive binding assay in the presence of 100 mM NaCl. The presence of NaCl in the resuspension buffer will result in about a 4 fold decrease in binding affinity for an opioid receptor agonist, whereas an antagonist will show about a 1 fold increase in receptor affinity.

Data set [2] deals with murine δ opioid receptor. Briefly: biochemical. In kind it is binding. As to conditions: for Selectivity for δ receptor (δ/κ): ratio of receptor affinities δ to κ; for Selectivity for δ Receptor (δ/μ): ratio of receptor affinities δ to μ. How it is done:
as §1, §2, §3, §4, §5

The target in a further data set is T2, human κ receptor (Homo sapiens, UniProt P41145).
T2 construct: expressed in transfected cells
Briefly: Competitive binding assay, [9-3H]bremazocine, membranes of stably transfected HEK293 cells. The following applies: for Ki: average observed, from IC50 by Cheng-Prusoff, read-out: Inhibition Constant, Ki κ; for Receptor Affinity (relative to 100%) κ: single concentration, 20 μM. The method, then: as §1, §2, §3, §4, §5

The target in the next data set is T3, murine μ opioid receptor (Mus musculus, UniProt P42866).
T3 construct: expressed in transfected cells
Described as above. The following applies: for Ki: average observed, from IC50 by Cheng-Prusoff, read-out: Inhibition Constant, Ki μ; for Receptor Affinity (relative to 100%) μ: single concentration, 20 μM. How it is done:
as §1, §2, §3, §4, §5

[3] abbreviates: 100 mM NaCl in resuspension buffer.
Where [4] appears, read: Inhibition Constant, Ki δ, average observed, from IC50 by Cheng-Prusoff.

Broadly, the Ki is the dissociation constant of the complex between target and ligand, obtained from inhibition or displacement. By melting point is commonly meant the temperature of the solid-liquid transition. In turn, `CC(C)(C)c1cccc(-c2nncn2-c2cccc(O)c2)c1` [Compound 5c, 1-{3-[3-(tert-Butyl)phenyl]-(1,2,4-triazol-4-yl)}-3-phenol] gave a melting point of 242.5 to 243.5 °C. Moreover, at murine δ opioid receptor [1] (setting [3]), the “increase in binding affinity in the presence of NaCl, δ” value is roughly 1 fold. The inhibition constant (Ki) at murine δ opioid receptor [1] (setting [4]) was 136 nM. At murine δ opioid receptor [1] (binding affinity for the δ opioid receptor, summary of Table 3), this molecule registered a Ki of roughly 100 nM. For the same molecule, the “agonist vs. antagonist activity, δ” value on murine δ opioid receptor [1] (preliminary test, 100 mM NaCl) is reported as “antagonist”. Moreover, the “Receptor Affinity (relative to 100%) δ” value at murine δ opioid receptor [1] was determined as 39%. Moreover, the “selectivity among the three receptor subtypes” value in the data set on murine δ opioid receptor [2] (at 20 μM, μ, δ, κ) is listed as “non-selective”. Moreover, in the data set with murine δ opioid receptor [2], the “Selectivity for δ receptor (δ/κ)” value was 0.46 and the “Selectivity for δ Receptor (δ/μ)” value came to 0.54. The “increase in binding affinity in the presence of NaCl, κ” value on human κ receptor (setting [3]) is given as roughly 1 fold. At human κ receptor, the Ki came out at 1390 nM and the “Receptor Affinity (relative to 100%) κ” value is on record as 85%. Further, on human κ receptor (preliminary test, 100 mM NaCl), the “agonist vs. antagonist activity, κ” value was “antagonist”. On murine μ opioid receptor (setting [3]), the “increase in binding affinity in the presence of NaCl, μ” value was roughly 1 fold. Also, on murine μ opioid receptor, the Ki is 444 nM and the “Receptor Affinity (relative to 100%) μ” value is 72%. Moreover, the “agonist vs. antagonist activity, μ” value at murine μ opioid receptor (preliminary test, 100 mM NaCl) is given as “antagonist”.

Consider `COc1cccc(-n2cnnc2-c2ccc(C(C)(C)C)cc2)c1` [Compound 4a, 1-{3-[4-(tert-Butyl)phenyl]-(1,2,4-triazol-4-yl)}-3-methoxybenzene], for which the melting point lay within 118.2 to 118.8 °C. Besides, on murine δ opioid receptor [1], the “Receptor Affinity (relative to 100%) δ” value amounted to 31%. Moreover, in the data set on murine δ opioid receptor [2], the “Selectivity for δ receptor (δ/κ)” value came out at 1.72 and the “Selectivity for δ Receptor (δ/μ)” value was 2.21. Besides, at human κ receptor, the “Receptor Affinity (relative to 100%) κ” value was 18%. Besides, the “Receptor Affinity (relative to 100%) μ” value on murine μ opioid receptor is listed as 14%.

Turning to `CC(C)(C)c1ccc(O)c(-c2nncn2-c2cccc(O)c2)c1` [Compound 5b, 1-{3-[5-(tert-Butyl)-2-hydroxyphenyl]-(1,2,4-triazol-4-yl)}-3-phenol], the “Receptor Affinity (relative to 100%) δ” value on murine δ opioid receptor [1] is roughly 0%. Further, the “Receptor Affinity (relative to 100%) κ” value on human κ receptor is recorded as 20%. On murine μ opioid receptor, the “Receptor Affinity (relative to 100%) μ” value came to 21%.

On to `COc1cccc(-n2cnnc2-c2cc(C(C)(C)C)ccc2OC)c1` [Compound 4b, 1-{3-[5-(tert-Butyl)-2-methoxyphenyl](1,2,4-triazol-4-yl)}-3-methoxybenzene], for which the melting point was 119.5 to 120 °C. Moreover, the “Receptor Affinity (relative to 100%) δ” value at murine δ opioid receptor [1] is reported as 8%. For the same molecule, in the data set with murine δ opioid receptor [2], the “Selectivity for δ receptor (δ/κ)” value is on record as 0.30 and the “Selectivity for δ Receptor (δ/μ)” value is listed as 0.27. Moreover, the “Receptor Affinity (relative to 100%) κ” value on human κ receptor is listed as 27%. Further, on murine μ opioid receptor, the “Receptor Affinity (relative to 100%) μ” value turned out to be 20%.

As to `COc1cccc(-n2cnnc2-c2cccc(C(C)(C)C)c2)c1` [Compound 4c, 1-{3-[3-(tert-Butyl)phenyl]-(1,2,4-triazol-4-yl)}-3-methoxybenzene], the melting point was 175 to 175.5 °C. Moreover, the “Receptor Affinity (relative to 100%) δ” value on murine δ opioid receptor [1] is recorded as 2%. Also, in the data set with murine δ opioid receptor [2], the “Selectivity for δ receptor (δ/κ)” value came to 0.07 and the “Selectivity for δ Receptor (δ/μ)” value amounted to 0.11. Besides, the “Receptor Affinity (relative to 100%) κ” value on human κ receptor is 27%. In addition, on murine μ opioid receptor, the “Receptor Affinity (relative to 100%) μ” value is recorded as 19%.

For the molecule `CC(C)(C)c1ccc(-c2nncn2-c2cccc(O)c2)cc1` [Compound 5a, 1-{3-[4-(tert-Butyl)phenyl]-(1,2,4-triazol-4-yl)}-3-phenol], on murine δ opioid receptor [1], the “Receptor Affinity (relative to 100%) δ” value was determined as 21%. In the data set with murine δ opioid receptor [2], the “Selectivity for δ receptor (δ/κ)” value is listed as 0.44 and the “Selectivity for δ Receptor (δ/μ)” value came to 1.17. For the same molecule, on human κ receptor, the “Receptor Affinity (relative to 100%) κ” value was 48%. Moreover, on murine μ opioid receptor, the “Receptor Affinity (relative to 100%) μ” value came to 18%.

`CN(C)c1nnc(-c2ccc(C(C)(C)C)cc2)n1-c1cccc(O)c1` [Compound 5d, 1-{3-[4-(tert-butyl)phenyl]-5-N,N-dimethylamino-(1,2,4-triazol-4-yl)}-3-phenol]: the values for the Ki on murine δ opioid receptor [1] (setting [4]), at human κ receptor and on murine μ opioid receptor were 300 nM, greater than 10000 nM and 4000 nM, respectively.
